Marks after values point to notes of the source that are not given here.
Columns and labels:
normal human fibroblasts [1] = test: Hyaluronic acid production by normal human fibroblasts treated with supernatant of treated keratinocytes (HA-ELISA); type: cell-based; details: supernatant on fibroblasts 48 hrs
Description: Normal human dermal fibroblasts were cultured to confluence. Cells were treated for 48 hours with supernatants of normal human keratinocytes previously grown in the presence of the test products. The fibroblast supernatants, containing hyaluronic acid, were collected and assayed immediately. Hyaluronic acid was quantified with an ELISA microtiter plate. Protein content was determined for each well of the microtiter plate.
(§1) Primocultures of normal human keratinocytes (NHK) were obtained from cells isolated from skin specimens from plastic surgery.
(§2) NHK were seeded at a density of 130,000 cells/well in specific KSFM culture medium (Gibco®, Invitrogen) in a 24-well plate. The plate was placed in a humid incubator (37° C., 5% CO2) for 24 hours.
Primocultures of normal human fibroblasts (NHF) were obtained from cells isolated from skin specimens from plastic surgery.
NHF were seeded at a density of 90,000 cells/well in E-199 culture medium supplemented with 0.5% FCS (Gibco® Invitrogen) in a 24-well plate. The plate was placed in a humid incubator (37° C., 5% CO2) for 24 hours.
The two cell types—NHK and NHF—were plated 48 hours apart.
The different products at the respective concentrations (diluted in KSFM medium, 600 μl) were contacted with NHK cells for 48 hours. Untreated cells were used as the control condition. Two plates were used to separately test NAG, and NAG+vitamin A propionate, on the one hand, and NAG6P, and NAG6P+vitamin A propionate, on the other hand.
(§3) Each treatment condition was evaluated on three wells of NHK cells.
After 48 hours, a fraction of NHK cell supernatant (300 μl/well) was removed and transferred well for well into NHF cell supernatants (300 μl E-199/well−fresh medium without FCS).
This gave a final volume of 600 μl/well (50:50 ratio of KSFM/E-199 medium) which remained on the NHF cells for 48 hours.
After 48 hours of treatment, the NHF cell supernatant was collected and centrifuged.
Hyaluronic acid was assayed in the cell supernatants as described in example 1.
(§4) The assay was performed in duplicate for each well.
(§5) Optical densities (OD) measured on each sample were plotted on a graph (specific standard curve in the kit). The hyaluronic acid concentration was expressed in ng/ml.
(§6) The amount of hyaluronic acid released by the cells was determined for each well and for each treatment condition, relative to the cell content expressed as μg of protein. Thus, the final result was expressed as ng/ml of hyaluronic acid per μg of protein.
(§7) A mean value was calculated for wells treated with the same concentration of test product. This mean was compared with the mean of the control wells (Student t test−comparison of means−significant difference at 95% if p<0.05* and at 99% if p<0.01**).
(§8) The percent stimulation induced by the test products was determined by comparing the mean values of the control and treatment conditions: % Stimulation=(Treated−Control)/Control

normal human fibroblasts [2] = test: Procollagen 1 production by normal human fibroblasts treated with supernatant of treated keratinocytes (EIA); type: cell-based; details: supernatant on fibroblasts 48 hrs
Description: This experiment was carried out according to the method described in example 3. Fibroblast supernatants, containing procollagen 1, were collected and assayed immediately for procollagen 1 by means of an EIA microtiter plate.
After 48 hours of treatment, NHF cell supernatants were collected and centrifuged.
Procollagen 1 was assayed in the cell supernatants by the method described in the Procollagen Type 1 C-peptide EIA kit (MK101, Takara). This is an EIA assay with spectrophotometric detection at 450 nm (Safire, Tecan).
Duplicate determinations were carried out for two wells whereas the third well was assayed only once.
Optical densities (OD) measured on each sample were plotted on a graph (specific standard curve in the kit). The procollagen 1 concentration was expressed in ng/ml.
As in example 3, the protein content was determined in the cell pellets of the supernatants for which procollagen 1 was assayed.
as §7, with “Thus, the final result was expressed as ng/ml of procollagen 1 per μg of protein. A” for “A”, “means, significant” for “means−significant”
The percent stimulation produced by the test products was determined by comparing the mean values of the control and treatment conditions: % Stimulation=(Treated−Control)/Control

[3] = test system: normal human keratinocytes; test: Hyaluronic acid production by normal human keratinocytes (HA-ELISA of supernatant); type: cell-based; details: 1 μM
Description: Normal human keratinocytes were cultured to confluence. Cells were treated with the test products for 48 hours. The supernatants, containing hyaluronic acid, were collected and assayed immediately. Hyaluronic acid was quantified with an ELISA microtiter plate.
as §1, §2
The different products at the respective concentrations (diluted in KSFM medium, 600 μl) were contacted with the cells for 48 hours. Untreated cells were used as the control condition.
as §3
After 24 hours of treatment, an intermediate sample of […] of supernatant was removed from each well and the plate returned to the incubator (37° C., 5% CO2).
After 48 hours of treatment, the remaining supernatant (≈350 μA) was collected and centrifuged.
Cell supernatants were assayed according to the method described in the Hyaluronan Enzyme-Linked Immunosorbent Assay kit (HA-ELISA, Echelon Biosciences Inc.). This is an ELISA assay with spectrophotometric detection at 405 nm (Safire, Tecan).
as §4, §5, §6
A mean value was calculated for wells treated with the same concentration of test product. This mean was compared with the mean of the control wells (Student t test−comparison of means−significant difference at 95% if p<0.05* and at 99% if p<0.01*).
as §8
The vitamin A propionate was dissolved in DMSO.

normal human fibroblasts [4] = test: Proliferation of normal human fibroblasts treated with supernatant of treated keratinocytes (Cell Proliferation ELISA, BrdU); type: cell-based; details: 1 μM on keratinocytes 48 hrs, supernatant on fibroblasts 48 hrs
Description: This experiment evaluated the proliferation of normal human fibroblasts (dermal primocultures) after 48 hours of treatment with supernatant transferred from human keratinocytes.
The “Cell Proliferation ELISA, BrdU” test quantifies cell proliferation by measuring incorporation of bromodeoxyuridine (BrdU) during DNA synthesis followed by luminescence detection.
Cells were placed in the presence of the treatment for a specified time (incubator at 37° C., 5% CO2). The pyrimidine analogue 5-bromo-2′-deoxyuridine (BrdU) was then added and the cells were further incubated (37° C., 5% CO2) for a minimum of 2 hours, during which time BrdU is incorporated in place of thymidine into the DNA of proliferating cells.
The culture medium was removed, then the cells were fixed and the DNA denatured at the same time (antibody accessibility). An anti-BrdU-POD (peroxidase) antibody was added; this antibody binds to BrdU in newly synthesized DNA. The immune complex was then detected by addition of luminol substrate with measurement of luminescence (Genios, Tecan).
NHF were seeded at a density of 5,000 cells/well in E-199 culture medium (Gibco® Invitrogen) in a 96-well Optilux white plate (BD Falcon 353947). The plate was placed in a humid incubator (37° C., 5% CO2) for 24 hours.
The different products at the respective concentrations (diluted in KSFM culture medium, 600 μl) were contacted with NHK cells for 48 hours. Control cells were left untreated. Each treatment conditions was evaluated on three wells of NHK cells.
After 48 hours, a fraction of the NHK cell supernatant was removed. Each sample of supernatant (2 times 100 μl) from a well on the NHK plate (24 wells) was transferred to two wells in the NHF plate already containing 100 μl of E-199 medium per well. […]
Cell proliferation was quantified by the method described in the “Cell Proliferation ELISA, BrdU” kit (Roche Applied Science No. 11669915001). This is an immunological assay with luminescence detection (Genios, Tecan).
The means of the luminescence values (RLU/s) of six wells with the same treatment condition were determined. […] Proliferation of treated cells was expressed as a percentage of the control(untreated cells−100%)(OD treated/OD control×100).

[5] = test system: patients with osteoarthritis; details: three-year trial, 212 patients with osteoarthritis, versus slight worsening in placebo group; cited from earlier work
[6] = 5 mM on keratinocytes 48 hrs, vs Control
[7] = 10 mM on keratinocytes 48 hrs, vs Control
[8] = 1 μM on keratinocytes 48 hrs, NAG6P plate (Table 6)
[9] = 1 μM on keratinocytes 48 hrs, NAG plate (Table 5)
[10] = 1 μM on keratinocytes 48 hrs, NAG6P plate (Table 8)
[11] = 1 μM on keratinocytes 48 hrs, NAG plate (Table 7)

Q: With CC(=O)N[C@H]1C(O)O[C@H](CO)[C@@H](O)[C@@H]1O (stereo partly shown) [NAG, N-acetylglucosamine] as the compound, how does the “Hyaluronic acid” value (normal human fibroblasts [1]; 5 mM on keratinocytes 48 hrs) read?
A: 4277.6 ± 488 ng/mL

Q: And the “Hyaluronic acid (ng/ml/μg prot.)” value (normal human fibroblasts [1]; 5 mM on keratinocytes 48 hrs)?
A: 358.9 ± 81.8 ng/ml/μg prot.

Q: What about the “% stimulation of hyaluronic acid synthesis” value (normal human fibroblasts [1]; [6]) of the same compound?
A: −17%

Q: And the “Hyaluronic acid” value (normal human fibroblasts [1]; 10 mM on keratinocytes 48 hrs)?
A: 4056.1 ± 315.5 ng/mL

Q: What about the “Hyaluronic acid (ng/ml/μg prot.)” value (normal human fibroblasts [1]; 10 mM on keratinocytes 48 hrs) of the same compound?
A: 258.8 ± 8.1 ng/ml/μg prot.

Q: What about the “% stimulation of hyaluronic acid synthesis” value (normal human fibroblasts [1]; [7]) of the same compound?
A: −40%**

Q: And the “Procollagen 1” value (normal human fibroblasts [2]; 5 mM on keratinocytes 48 hrs)?
A: 685.9 ± 38.6 ng/mL

Q: And the “Procollagen 1 (ng/ml/μg prot.)” value (normal human fibroblasts [2]; 5 mM on keratinocytes 48 hrs)?
A: 57.3 ± 10.5 ng/ml/μg prot.

Q: And the “% stimulation (procollagen 1)” value (normal human fibroblasts [2]; [6])?
A: −37%*

Q: And the “Procollagen 1” value (normal human fibroblasts [2]; 10 mM on keratinocytes 48 hrs)?
A: 700.9 ± 32.7 ng/mL

Q: What about the “Procollagen 1 (ng/ml/μg prot.)” value (normal human fibroblasts [2]; 10 mM on keratinocytes 48 hrs) of the same compound?
A: 44.9 ± 1.3 ng/ml/μg prot.

Q: What about the “% stimulation (procollagen 1)” value (normal human fibroblasts [2]; [7]) of the same compound?
A: −51%**

Q: What does the source list for CCC(=O)OC/C=C(C)/C=C/C=C(C)/C=C/C1=C(C)CCCC1(C)C [Vit. A propionate, vitamin A propionate]?
A: % stimulation of hyaluronic acid synthesis ([3]; 24 hrs): 34%*; Hyaluronic acid ([3]; 24 hrs): 1056 ± 186.5 ng/mL; % stimulation of hyaluronic acid synthesis ([3]; 24 hrs, listed as vitamin A propionate): 34%; Hyaluronic acid ([3]; 48 hrs): 1944.8 ± 393.2 ng/mL; Hyaluronic acid (ng/ml/μg prot.) ([3]; 48 hrs): 137.1 ± 32.2 ng/ml/μg prot.; % stimulation of hyaluronic acid synthesis ([3]; 48 hrs, vs DMSO control): 105%*; % stimulation of hyaluronic acid synthesis ([3]; 48 hrs, vs DMSO control, listed as vitamin A propionate): 105%; Hyaluronic acid (normal human fibroblasts [1]; [8]): 3358.8 ± 615.3 ng/mL; Hyaluronic acid (ng/ml/μg prot.) (normal human fibroblasts [1]; [8]): 389.2 ± 108.3 ng/ml/μg prot.; % stimulation of hyaluronic acid synthesis (normal human fibroblasts [1]; 1 μM on keratinocytes 48 hrs, NAG6P plate (Table 6), vs DMSO control): 7%; Hyaluronic acid (normal human fibroblasts [1]; [9]): 3645.6 ± 667.8 ng/mL; Hyaluronic acid (ng/ml/μg prot.) (normal human fibroblasts [1]; [9]): 316.6 ± 68 ng/ml/μg prot.; % stimulation of hyaluronic acid synthesis (normal human fibroblasts [1]; 1 μM on keratinocytes 48 hrs, NAG plate (Table 5), vs DMSO control): −18%; RLU (normal human fibroblasts [4]): 4640 ± 267 RLU; % Proliferation (normal human fibroblasts [4]; DMSO control = 100%): 109%**; Procollagen 1 (normal human fibroblasts [2]; [10]): 704.4 ± 38.6 ng/mL; Procollagen 1 (ng/ml/μg prot.) (normal human fibroblasts [2]; [10]): 81.9 ± 13.0 ng/ml/μg prot.; % stimulation (procollagen 1) (normal human fibroblasts [2]; 1 μM on keratinocytes 48 hrs, NAG6P plate (Table 8), vs DMSO control): 5%; Procollagen 1 (normal human fibroblasts [2]; [11]): 706.1 ± 73.8 ng/mL; Procollagen 1 (ng/ml/μg prot.) (normal human fibroblasts [2]; [11]): 64.3 ± 20.1 ng/ml/μg prot.; % stimulation (procollagen 1) (normal human fibroblasts [2]; 1 μM on keratinocytes 48 hrs, NAG plate (Table 7), vs DMSO control): 15%

Q: For N[C@H]1C(O)O[C@H](CO)[C@@H](O)[C@@H]1O (stereo partly drawn) [glucosamine, D-glucosamine], which improvement in symptoms [5] is on record?
A: 20-25%
